{
  "source": "patent US6362319B1",
  "about": "“Glial cell line-derived neurotrophic factor” (Amgen Inc., priority 1991, dated 2002)",
  "key": {"[1]": {"target": "monoamine transporter on dopaminergic neurons (Rattus norvegicus, UniProt P23977)", "sequence (P23977 whole entry)": "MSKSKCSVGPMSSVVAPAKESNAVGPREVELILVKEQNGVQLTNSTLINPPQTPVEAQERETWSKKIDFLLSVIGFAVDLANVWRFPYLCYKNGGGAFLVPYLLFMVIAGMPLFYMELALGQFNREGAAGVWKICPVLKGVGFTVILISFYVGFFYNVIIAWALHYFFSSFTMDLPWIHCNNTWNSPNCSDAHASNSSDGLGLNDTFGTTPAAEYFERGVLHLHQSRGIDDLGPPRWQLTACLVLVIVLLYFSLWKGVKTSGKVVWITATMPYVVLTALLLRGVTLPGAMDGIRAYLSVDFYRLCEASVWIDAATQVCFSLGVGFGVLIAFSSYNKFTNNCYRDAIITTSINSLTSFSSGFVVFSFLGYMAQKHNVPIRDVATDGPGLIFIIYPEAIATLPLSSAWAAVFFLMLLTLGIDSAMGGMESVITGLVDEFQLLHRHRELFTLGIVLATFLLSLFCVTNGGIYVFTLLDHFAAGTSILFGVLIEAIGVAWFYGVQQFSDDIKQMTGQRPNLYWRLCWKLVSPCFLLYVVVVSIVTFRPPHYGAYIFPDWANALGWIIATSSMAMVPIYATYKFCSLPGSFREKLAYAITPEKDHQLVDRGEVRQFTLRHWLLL", "conditions": "0.5 mM inhibitor in uptake buffer", "excerpt": "The functional status of the dopaminergic neurons may be assayed in these cultures by measuring dopamine uptake through specific “scavenger” transporters in the dopaminergic neurons and by counting the number of neurons positive for the dopamine synthetic enzyme tyrosine hydroxylase using immunohistochemistry."}, "[2]": {"system": "serotonergic neurons in rat embryo mesencephalic cultures", "experiment": "3H-serotonin uptake in mesencephalic cultures", "assay_type": "cell-based", "conditions": "10 μM inhibitor", "experimental": "FIGS. 24A-B depicts the specificity of GDNF to dopaminergic neurons. Cultures were prepared as described in Example 1B. GDNF was added on the day of plating, and uptake was measured after 6 days in vitro. A depicts dopamine uptake and B depicts serotonin uptake.\nIn the presence of 10 μM citalpram (obtained from Dr. C. Mytilineou, Mount Sinai School of Medicine), a known potent inhibitor of serotonin uptake in serotonin neurons, the ^3H-serotonin uptake was reduced to 15%."}, "[3]": {"system": "GABA neurons in mesencephalic cultures", "experiment": "14C-GABA uptake in mesencephalic cultures", "assay_type": "cell-based, rat", "conditions": "1 mM inhibitor", "experimental": "FIGS. 21A-C depicts the specificity of GDNF to dopaminergic neurons. Cultures were established as described in Example 1B. GDNF was added on the day of plating. A. ^3H-DA uptake was measured after seven days in vitro. B. ^14C-GABA uptake was measured after eight days in vitro. Cells were incubated and treated as for ^3H-DA uptake, except the uptake buffer consists of Kreb-Ringer's phosphate buffer, pH 7.4, containing 5.6 mM glucose, 1.3 mM EDTA, 10 μM amino-oxyacetic acid (to prevent GABA breakdown), 2 mM β-alanine (to inhibit glia uptake of GABA) and 0.1 μM ^14C-GABA (150 mCi/mmole, New England Nuclear, Boston, Mass.). In the presence of 1 mM diaminobutyric acid (DABA), a potent inhibitor of ^14C-GABA uptake into GABA neurons, the ^14C-uptake was reduced to 10%. Control values in the presence of DABA were subtracted from experimental values.\nH^3-dopamine (^3H-DA) and ^14C-GABA uptake were measured in sister cultures of mesencephalic cells which had been grown with various concentrations of GDNF for 15 and 16 days, respectively. As described above, GDNF enhanced the ^3H-DA uptake capacity of mesencephalic dopamine neurons ˜150% over control without GDNF (FIG. 21A). […] This is also illustrated by the increase in the ^3H-DA/^14C-GABA uptake ratio calculated (FIG. 21C)."}, "[4]": {"system": "GABA neurons in mesencephalic cultures", "conditions": "Casper et al. 1991; cited from earlier work"}, "[5]": {"system": "dopaminergic neurons in rat embryo (E16) mesencephalic cell cultures", "conditions": "Casper et al. 1991; cited from earlier work"}, "[6]": {"system": "serotonergic neurons in rat embryo mesencephalic cultures", "conditions": "Casper et al. 1991; cited from earlier work"}},
  "data": [
    {"compound": "Fc1ccc(C(OCCN2CCN(CCCc3ccccc3)CC2)c2ccc(F)cc2)cc1", "note": "[GBR12909]", "values": [
      {"measurement": "blank 3H-DA uptake as % of uptake in untreated control cultures", "setting": "[1]", "value": "less than 5%"}
    ]},
    {"compound": "CN(C)CCCC1(c2ccc(F)cc2)OCc2cc(C#N)ccc21", "note": "(stereo not drawn) [citalpram, reference compound]", "values": [
      {"measurement": "3H-serotonin uptake remaining in presence of inhibitor", "setting": "[2]", "value": 15, "unit": "%"}
    ]},
    {"compound": "NCCC(N)C(=O)O", "note": "(stereo not drawn) [diaminobutyric acid (DABA), diaminobutyric acid, reference compound]", "values": [
      {"measurement": "14C-uptake remaining in presence of inhibitor", "setting": "[3]", "value": 10, "unit": "%"}
    ]},
    {"compound": "epidermal growth factor (NSDSECPLSHDGYCLHDGVCMYIEALDKYACNCVVGYIGERCQYRDLKWWELR; Epidermal growth factor; UniProt P01133 971-1023, looked up) [EGF, non-specific factor increasing dopamine, serotonin and GABA uptake]", "values": [
      {"measurement": "effect on GABA uptake", "setting": "[4]", "value": "increase"},
      {"measurement": "effect on dopamine uptake", "setting": "[5]", "value": "increase dopamine uptake"},
      {"measurement": "effect on serotonin uptake", "setting": "[6]", "value": "increase serotonin uptake"}
    ]}
  ]
}
